Literature values in patent US20090252807A1, “Nanoparticulate and Controlled Release Compositions Comprising Prostaglandin Derivatives” (ELAN PHARMA INTERNATIONAL LIMITED, priority 2005, published 2009).
Like-named read-outs stand apart in the source and are kept apart here.

Key:
platelet adhesiveness = conditions: in vitro
blood pressure = conditions: 100 and 300 μg/kg orally in rats
coronary blood flow = conditions: intra-coronary injection 100 ng/kg or intravenous injection 3 μg/kg, anesthetized dogs

For “(E)-7-{(1R,2R,3R)-3-hydroxy-2-[(3S,5S)-E-3hydroxy-5-methyl-1-nonenyl]-5-oxocyclopentyl}-2-heptonoic acid α-cyclodextrin inclusion compound [Limaprost]”, the “potency relative to PGE1 as an inhibitor of platelet adhesiveness” value (platelet adhesiveness) is listed as 10-1,000 times, the hypotensive effects (blood pressure) is listed as “Significant hypotensive effects” and the “increase of coronary blood flow” value (coronary blood flow) is listed as 60-80%. The solubility in diethylether was “practically insoluble”, the solubility in ethanol was “very slightly soluble” and the “solubility in ethyl acetate” value was “practically insoluble”. The solubility in water was “freely soluble” and the solubility in water (listed as limaprost) was “practically insoluble”.
